Structures are written as SMILES. Entries after “also recorded” stand apart in the source; their conditions may differ.

What all share (format): in vivo, rat
Series [1] relates to aorta calcification in rats treated with vitamin D plus warfarin. Description: von Kossa staining for calcification in rats treated with vitamin D plus warfarin. Particulars: for Histology Score Observer #1 x ± S.D. / Histology Score Observer #2 x ± S.D.: 84 h; for dose that completely eliminated von Kossa staining for mineral in the abdominal aorta: 84 h after first vitamin D. As for the experimental part: (§1) For measurement of mineral accumulation in arteries, each tissue was removed within 30 minutes of death and immediately frozen. Tissues were subsequently washed extensively with buffer and extracted with 1 ml of 10% formic acid for 24 h at room temperature, as described. Calcium levels in serum were determined colorimetrically using cresolphthalein complexone (Sigma) and phosphate levels in serum and in acid tissue extracts were determined calorimetrically as described (Zhu et al. (1994) Cardiology, 85: 370-377). Tissue sectioning and staining were carried out by Biomedical Testing Services, Inc., (San Diego, Calif.).
Male Sprague Dawley rats were fed ad libitum with rodent diet 5001 (Purina Mills Inc., St. Louis, Mo.), a diet that is 0.67% phosphorus and 0.95% calcium by weight. This diet contains 500 μg per kg of phylloquinone and has no added menadione. In all experiments, animals were killed by exsanguination while under metofane anesthetic, and selected tissues were removed immediately and fixed in 10% buffered formalin or frozen at −20° C. for later studies. All animal experiments were approved by the UCSD animal subjects committee.

The nature of series [2]: serum levels of calcium and phosphate in rats treated with vitamin D plus warfarin. Particulars: 84 h; for reduction of serum phosphate: two highest doses. Here is the method:
as §1, with “Calif.). […]” for “Calif.).”

Series [3] deals with warfarin-induced artery calcification. Description: artery calcification in rats treated with warfarin for 2 or 4 weeks. Particulars: both carotid arteries. As for the experimental part: as §1, with “Tissues” for “For measurement of mineral accumulation in arteries, each tissue was removed within 30 minutes of death and immediately frozen. Tissues”, “Calif.). The effect of bisphosphonates on artery calcification was also examined in rats treated with warfarin alone using procedures which have been described elsewhere (Price et al. (1998) Arterioscler. Thromb. Vasc. Biol. 18: 1400-1407).” for “Calif.).”

The nature of series [4]: weight, tibia length and serum calcium and phosphate in warfarin-treated rats. Particulars: for mg Ca dl serum / mg P dl serum: 4 weeks. The text has this: This procedure induces artery calcification within 2 weeks without the presence of hypercalcemia.
A short description of series [5]: serum levels of calcium, phosphate, MGP and BGP after subcutaneous bisphosphonate. Here is the method: Rats were fed rodent diet 5001 (Purina Mills Inc., St. […] Etidronate was dissolved with 0.15 M NaCl, titrated to pH 7.4 with dilute NaOH, and administered subcutaneously to forty-day-old male rats. Control animals received injections of 0.15 M NaCl only. […] At the times indicated in FIG. 1, each rat was anesthetized with metofane and a 400 μl sample of blood was withdrawn from the jugular vein. Blood samples were allowed to clot for 15 min at room temperature and serum was obtained after centrifugation in a clinical centrifuge and then frozen rapidly on dry ice and stored at -70° C. until later analysis. The same procedure was followed for the second time course experiment (FIG. 10), with the difference that the etidronate dose was increased to 32 mg per 100 g body weight. […] Two hours later, all rats were injected with etidronate at a dose of 8 mg/100 g (t=0), and 400 μl of blood were removed from each animal at the indicated times for biochemical analyses. […] In neither control group could we detect a significant change in serum levels of calcium, phosphate, or MGP at any time point. […] Rice et al. (1994) J. Bone Min. Res. 9: 567-576). Calcium levels in serum and other samples were determined colorimetrically using cresolphthalein complexone (Sigma) and phosphate levels in serum, effluent fractions, and other samples were determined calorimetrically as described (Chen et al. (1956) Anal. Chem. 28(11): 1756-1758). For determination of ionic calcium, freshly obtained blood samples were immediately placed into a 2.5 ml gold top vacutainer tube to avoid out gassing of CO2 and the associated shift in pH. […] Electrophoresis was carried out using 4 to 20% polyacrylamide gels (Novex, Inc., San Diego, Calif.) run in Tris-glycine buffer containing SDS. Protein sequencing was carried out on bands transferred to PVDF membranes using a Procise 494 Sequencer (ABI division, PE Biosystems, Foster City, Calif.).

In series [6] the test system is vitamin D-induced artery calcification. The series can be described thus: mineral phosphate accumulation in acid demineralization extracts of thoracic aorta and carotid arteries, vitamin D plus warfarin. Particulars: for Artery Calcification Relative potency: relative to etidronate = 1. Here is the method: Tissues were subsequently washed extensively with buffer and extracted with 1 ml of 10% formic acid for 24 h at room temperature, as described. Calcium levels in serum were determined colorimetrically using cresolphthalein complexone (Sigma) and phosphate levels in serum and in acid tissue extracts were determined calorimetrically as described (Zhu et al. (1994) Cardiology, 85: 370-377). Tissue sectioning and staining were carried out by Biomedical Testing Services, Inc., (San Diego, Calif.). The effect of bisphosphonates on artery calcification was first examined in rats in which artery calcification was induced by treatment with warfarin plus high doses of vitamin D. […] All animals were killed by exsanguination at 96 h. […] All animals were killed by exsanguination at 96 h after the first vitamin D dose. […] All animals were killed by exsanguination 96 h after the first vitamin D injection.

A short description of series [7]: Sephacryl S300 gel filtration of serum. The note with it: serum 6 h after etidronate, concurrent warfarin. Here is the method: The serum mineral complex was characterized by gel filtration using 25 ml columns of Sephacryl S-300 HR which were prepared in disposable plastic pipets and were equilibrated with 20 mM HEPES pH 7.4, 0.15 M NaCl and 10 mM CaCl2 at room temperature. Serum was obtained from rats 6 h after administration of etidronate at a dose of 8 mg/100 g, and 1 ml aliquots were immediately applied to the Sephacryl column. Fractions of 0.5 ml were then collected and analyzed to determine the level of phosphate and MGP (see below).

[8] abbreviates: 0.0004 mg P/kg/day sc, score 0-5.
Where [9] appears, read: 0.002 mg P/kg/day sc, score 0-5.
The mark [10] stands for this setting: 0.010 mg P/kg/day sc, score 0-5.
Where [11] appears, read: 0.050 mg P/kg/day sc, score 0-5.
The mark [12] stands for this setting: 0.025 mg P/kg/day plus warfarin.
Where [13] appears, read: 0.00036 mg P/kg/day sc, score 0-5 (5 most calcified).
The mark [14] stands for this setting: 0.0018 mg P/kg/day sc, score 0-5.
Where [15] appears, read: 0.009 mg P/kg/day sc, score 0-5.
The mark [16] stands for this setting: 0.045 mg P/kg/day sc, score 0-5.
Where [17] appears, read: 15.4 mg warfarin per 100 g 2 h before 8 mg/100 g etidronate.

Take `NCCCC(O)(P(=O)(O)O)P(=O)(O)O` [Alendronate, (4-amino-1-hydroxybutylidene)bis-phosphonate]: the “Histology Score Observer #1 x ± S.D.” value in series [1] (setting [8]) is reported as 2.8 ± 1.0; in series [1] (setting [9]) it was 2.5 ± 0.6; in series [1] (setting [10]), 2.0 ± 1.8; in series [1] (setting [11]) it was 0.8 ± 0.5; in series [1] (0.25 mg P/kg/day sc, score 0-5), 0.0 ± 0.0. Moreover, the “Histology Score Observer #2 x ± S.D.” value is 3.3 ± 1.3 in series [1] (setting [8]); 2.0 ± 0.8 in series [1] (setting [9]); 2.5 ± 1.3 in series [1] (setting [10]); 0.4 ± 0.5 in series [1] (setting [11]); 0.0 ± 0.0 in series [1] (0.25 mg P/kg/day sc, score 0-5). For the same molecule, in series [1], the “dose that completely eliminated von Kossa staining for mineral in the abdominal aorta” value is reported as 0.25 mg P/kg/day. The “Serum Ca” value stood at 13.3 ± 0.7 mg/dL in series [2] (0.0004 mg P/kg/day) and 15.9 ± 0.4 mg/dL in series [2] (0.01 mg P/kg/day). The “Serum P” value in series [2] (0.0004 mg P/kg/day) is 10.8 ± 1.2 mg/dL; in series [2] (0.002 mg P/kg/day), 10.2 ± 0.6 mg/dL; in series [2] (0.01 mg P/kg/day), 10.0 ± 0.9 mg/dL; in series [2] (0.05 mg P/kg/day), 9.9 ± 0.5 mg/dL; in series [2] (0.25 mg P/kg/day), 9.5 ± 0.7 mg/dL. For the same molecule, in series [2], the “reduction of serum phosphate” value is on record as “about 16%”. The “nmol PO4 Carotid” value in series [3] (setting [12]) came out at 374.0 ± 217.4 nmol; in series [3] (0.25 mg P/kg/day plus warfarin) it was 63.7 ± 43.1 nmol. For the same molecule, the figures for the “mg Ca dl serum” value in series [4] (setting [12]) and in series [4] (0.25 mg P/kg/day plus warfarin) were 10.0 ± 0.1 mg/dL and 10.8 ± 0.1 mg/dL, respectively. For the same molecule, the “mg P dl serum” value in series [4] (setting [12]) amounted to 10.0 ± 0.1 mg/dL; in series [4] (0.25 mg P/kg/day plus warfarin), 10.9 ± 0.7 mg/dL. The “effect on bone growth or weight gain” value in series [4] (0.025 and 0.25 mg P/kg/day, warfarin 4 weeks) is “without affecting bone growth or weight gain”. Moreover, the “effect on serum calcium, phosphate and MGP levels” value in series [5] (4 mg/100 g dose, 1, 2, 6, 12 and 24 h, data not shown) is “no effect”.
As for `CCCCCN(C)CCC(O)(P(=O)(O)O)P(=O)(O)O` [Ibandronate, (1-hydroxy-3-(methylpentylamino)propylidene)bis-phosphonate], the “Histology Score Observer #1 x ± S.D.” value in series [1] (setting [13]) is on record as 1.0 ± 0.8; in series [1] (setting [14]) it was 0.0 ± 0.0; in series [1] (setting [15]), 0.0 ± 0.0; in series [1] (setting [16]), 0.0 ± 0.0. Also, the “Histology Score Observer #2 x ± S.D.” value in series [1] (setting [13]) is on record as 1.0 ± 0.8; in series [1] (setting [14]) it was 0.0 ± 0.0; in series [1] (setting [15]) it was 0.0 ± 0.0; in series [1] (setting [16]), 0.0 ± 0.0. Besides, the “dose that completely eliminated von Kossa staining for mineral in the abdominal aorta” value in series [1] is given as at least 0.0018 mg P/kg/day. Further, the “dose required to reduce the extent of mineralization by half in the thoracic aorta” value in series [6] (84 h, FIG. 3) stood at 0.0002 mg P/kg/day. Moreover, the “dose required to reduce the extent of mineralization by half in the carotid artery” value in series [6] (84 h, FIG. 4) turned out to be 0.00018 mg P/kg/day. In addition, the “Artery Calcification Dose for 50% inhibition” value in series [6] (daily subcutaneous dose, vitamin D-induced artery calcification, male rats initially 200 g) worked out at 0.00019 mg P/kg/day. The “subcutaneous dose required for 50% inhibition of artery calcification” value in series [6] (rat, FIGS. 3 and 4) is 0.2 μg P/kg/day. Besides, the “Artery Calcification Relative potency” value was 10500 in series [6] and 10,500 in series [6] (listed as ibandronate). The “Serum Ca” value in series [2] (0.00036 mg P/kg/day) was 13.8 ± 0.6 mg/dL; in series [2] (0.0018 mg P/kg/day) it was 15.5 ± 0.9 mg/dL; in series [2] (0.009 mg P/kg/day), 14.9 ± 0.6 mg/dL; in series [2] (0.045 mg P/kg/day) it was 15.4 ± 0.3 mg/dL. The “Serum P” value in series [2] (0.00036 mg P/kg/day) was found to be 9.9 ± 0.5 mg/dL; in series [2] (0.0018 mg P/kg/day), 10.3 ± 0.6 mg/dL; in series [2] (0.009 mg P/kg/day), 10.4 ± 0.7 mg/dL; in series [2] (0.045 mg P/kg/day), 9.9 ± 0.4 mg/dL. For the same molecule, in series [2], the “reduction of serum phosphate” value is about 11%.
Regarding `CC(=O)CC(c1ccccc1)c1c(O)c2ccccc2oc1=O` (centres unmarked) [warfarin], in series [5] (setting [17]), the “effect on the increase in serum MGP following etidronate” value is on record as “prevents the increase in serum MGP; also recorded: blocked the increase in serum MGP”; the “effect on the time course of the elevation in serum calcium and phosphate following etidronate” value was “did not affect”. Moreover, in series [5] (animals which did not receive etidronate), the “effect on serum levels of MGP” value is “no effect”. In addition, in series [7], the “MGP levels in the high molecular weight position, of the level in vitamin K-replete, etidronate treated rats” value is 5% and the “phosphate levels in the high molecular weight, excluded volume position vs vitamin K-replete, etidronate treated rats” value is “comparable”.

The values above are taken from patent US6812034B2, “Fetuin-MGP-mineral complex in serum assayed to determine calcification risk” (The Regents of the University of California, priority 2000, dated 2004).
